The target of one test is ROCK1 (Homo sapiens (Human), UniProt Q13464). The experiment in a line: ROCK assay (LABCHIP peptide phosphorylation), ROCK1. It counts as biochemical. To be noted: 5 μM ATP, 1.5 μM peptide substrate; read-out: ROCK1 IC50.
A further test deals with ROCK2 (Homo sapiens (Human), UniProt O75116). The experiment in a line: ROCK assay (LABCHIP peptide phosphorylation), ROCK2. It counts as biochemical. To be noted: 5 μM ATP, 1.5 μM peptide substrate.

Structures are written as SMILES.

Sequence of ROCK1 (Q13464 whole entry, species assumed): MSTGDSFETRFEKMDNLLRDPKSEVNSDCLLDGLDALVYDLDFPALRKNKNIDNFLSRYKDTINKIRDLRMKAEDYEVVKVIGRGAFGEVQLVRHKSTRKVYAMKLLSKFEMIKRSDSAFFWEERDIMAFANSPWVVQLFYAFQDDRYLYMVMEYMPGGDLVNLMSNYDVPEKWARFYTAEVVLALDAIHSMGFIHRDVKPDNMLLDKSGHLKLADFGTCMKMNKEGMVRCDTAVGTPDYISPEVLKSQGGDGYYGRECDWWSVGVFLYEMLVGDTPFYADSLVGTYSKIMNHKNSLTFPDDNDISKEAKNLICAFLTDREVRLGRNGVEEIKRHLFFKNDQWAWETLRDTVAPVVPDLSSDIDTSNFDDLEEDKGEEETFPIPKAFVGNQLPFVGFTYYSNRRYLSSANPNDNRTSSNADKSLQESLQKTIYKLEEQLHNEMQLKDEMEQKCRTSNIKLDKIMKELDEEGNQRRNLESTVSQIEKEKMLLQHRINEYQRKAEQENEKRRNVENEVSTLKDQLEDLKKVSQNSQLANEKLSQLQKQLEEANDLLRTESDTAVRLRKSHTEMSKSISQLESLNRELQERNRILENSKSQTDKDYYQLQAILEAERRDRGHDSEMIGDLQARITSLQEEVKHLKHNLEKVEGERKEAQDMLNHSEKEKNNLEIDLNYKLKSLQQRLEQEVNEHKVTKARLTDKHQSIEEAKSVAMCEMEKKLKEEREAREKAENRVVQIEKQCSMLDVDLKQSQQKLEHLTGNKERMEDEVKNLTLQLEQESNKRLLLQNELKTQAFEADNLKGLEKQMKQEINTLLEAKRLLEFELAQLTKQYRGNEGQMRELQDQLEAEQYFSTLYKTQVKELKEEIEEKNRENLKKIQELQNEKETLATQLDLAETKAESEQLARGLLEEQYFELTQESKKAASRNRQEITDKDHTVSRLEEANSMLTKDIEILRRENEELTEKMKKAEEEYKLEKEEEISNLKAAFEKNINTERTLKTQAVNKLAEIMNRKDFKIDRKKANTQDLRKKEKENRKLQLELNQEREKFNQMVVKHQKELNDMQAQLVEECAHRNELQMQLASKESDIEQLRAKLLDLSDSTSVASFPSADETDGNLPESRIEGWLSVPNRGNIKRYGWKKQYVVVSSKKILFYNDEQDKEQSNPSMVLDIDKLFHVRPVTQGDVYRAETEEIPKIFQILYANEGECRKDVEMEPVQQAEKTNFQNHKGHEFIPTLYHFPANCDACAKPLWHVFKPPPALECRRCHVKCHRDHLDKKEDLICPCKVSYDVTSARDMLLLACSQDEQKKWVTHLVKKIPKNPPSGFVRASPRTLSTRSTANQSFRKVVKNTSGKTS
Sequence of ROCK2 (O75116 whole entry, species assumed): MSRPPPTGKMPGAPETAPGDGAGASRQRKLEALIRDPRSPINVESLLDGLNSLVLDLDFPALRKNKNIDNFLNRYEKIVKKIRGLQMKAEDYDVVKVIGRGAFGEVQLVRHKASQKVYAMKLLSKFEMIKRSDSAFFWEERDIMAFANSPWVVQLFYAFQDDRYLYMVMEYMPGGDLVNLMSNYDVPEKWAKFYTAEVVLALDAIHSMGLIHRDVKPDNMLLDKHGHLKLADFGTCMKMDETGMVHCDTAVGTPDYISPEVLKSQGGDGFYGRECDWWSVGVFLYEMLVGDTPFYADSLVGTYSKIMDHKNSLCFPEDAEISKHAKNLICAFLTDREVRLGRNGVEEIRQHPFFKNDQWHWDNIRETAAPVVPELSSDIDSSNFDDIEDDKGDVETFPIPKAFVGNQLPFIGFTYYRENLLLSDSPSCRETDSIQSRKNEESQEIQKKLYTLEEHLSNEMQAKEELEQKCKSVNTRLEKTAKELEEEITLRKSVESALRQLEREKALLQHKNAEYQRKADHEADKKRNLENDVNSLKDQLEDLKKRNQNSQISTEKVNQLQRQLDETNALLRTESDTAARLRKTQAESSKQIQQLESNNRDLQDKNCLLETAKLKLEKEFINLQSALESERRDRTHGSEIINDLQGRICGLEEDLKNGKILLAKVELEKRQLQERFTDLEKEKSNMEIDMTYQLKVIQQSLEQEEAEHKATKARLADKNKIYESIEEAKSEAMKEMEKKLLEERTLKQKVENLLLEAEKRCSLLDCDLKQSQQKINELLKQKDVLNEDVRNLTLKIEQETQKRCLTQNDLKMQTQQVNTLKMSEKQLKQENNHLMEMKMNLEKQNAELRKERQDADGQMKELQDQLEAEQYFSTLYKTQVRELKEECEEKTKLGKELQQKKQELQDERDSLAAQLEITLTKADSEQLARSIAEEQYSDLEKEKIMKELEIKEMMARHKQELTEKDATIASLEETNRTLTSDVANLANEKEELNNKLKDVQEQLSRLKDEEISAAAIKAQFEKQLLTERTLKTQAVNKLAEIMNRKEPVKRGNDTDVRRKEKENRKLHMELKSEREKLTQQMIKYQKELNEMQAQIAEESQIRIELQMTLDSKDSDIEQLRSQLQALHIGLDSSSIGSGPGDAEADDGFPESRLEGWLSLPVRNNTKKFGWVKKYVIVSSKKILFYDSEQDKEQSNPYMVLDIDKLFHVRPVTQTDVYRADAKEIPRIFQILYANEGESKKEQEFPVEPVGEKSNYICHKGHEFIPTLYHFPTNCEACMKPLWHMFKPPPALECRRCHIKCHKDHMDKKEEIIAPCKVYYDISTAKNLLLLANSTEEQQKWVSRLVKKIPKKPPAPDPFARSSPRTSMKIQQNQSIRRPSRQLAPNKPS

Take `O=C(Nc1ccc(-c2n[nH]c(=O)c3ccccc23)cc1)c1nn(Cc2cccnc2)c2ccccc12` [Example 161, N-[4-(4-oxo-3,4-dihydrophthalazin-1-yl)phenyl]-1-(pyridin-3-ylmethyl)-1H-indazole-3-carboxamide]: the IC50 on ROCK1 and on ROCK2 was 0.1 to 100 nM each time.

On to `CN(C)c1ccc(C(=O)Nc2ccc(-c3c[nH]c(=O)c4ccccc34)cc2)cc1` [Example 245, 4-(Dimethylamino)-N-(4-(1-oxo-1,2-dihydroisoquinolin-4-yl)phenyl)benzamide], for which the 50% inhibitory concentration (IC50) at ROCK1 and on ROCK2 was 0.1 to 100 nM in each case.

For `COc1cc(-c2n[nH]c(=O)c3ccccc23)ccc1NC(=O)c1nn(CC2CCOC2)c2ccccc12` (stereo not drawn) [Example 352, N-(2-Methoxy-4-(4-oxo-3,4-dihydrophthalazin-1-yl)phenyl)-1-((tetrahydrofuran-3-yl)methyl)-1H-indazole-3-carboxamide], the figures for the IC50 at ROCK1 and on ROCK2 were 1000 to 50000 nM and 101 to 1000 nM, respectively.

As to `CC(C)n1nc(C(=O)Nc2ccc(-c3n[nH]c(=O)c4ccccc34)cc2)c2ccccc21` [Example 132, N-[4-(4-oxo-3,4-dihydrophthalazin-1-yl)phenyl]-1-(propan-2-yl)-1H-indazole-3-carboxamide], the IC50 on ROCK1 and against ROCK2 was 0.1 to 100 nM in each case.

Regarding `O=C(COc1ccc2c(c1)N(C(=O)Cc1ccc(-c3n[nH]c(=O)c4ccccc34)cc1)CC2)N1CCOCC1` [Example 297, 4-(4-(2-(6-(2-Morpholino-2-oxoethoxy)indolin-1-yl)-2-oxoethyl)phenyl)phthalazin-1(2H)-one], the IC50 at ROCK1 and against ROCK2 was 0.1 to 100 nM each time.

On to `O=C(Nc1ccc(-c2n[nH]c(=O)c3ccccc23)cc1)c1nc2c(s1)CCCC2` [Example 53, N-[4-(4-oxo-3,4-dihydrophthalazin-1-yl)phenyl]-4,5,6,7-tetrahydro-1,3-benzothiazole-2-carboxamide], for which the IC50 at ROCK1 and against ROCK2 was 0.1 to 100 nM each time.

As for `COc1cc2c(-c3ccc(CC(=O)N4Cc5ccccc5C4)cc3)c[nH]c(=O)c2cc1OC` [Example 255, 4-(4-(2-(Isoindolin-2-yl)-2-oxoethyl)phenyl)-6,7-dimethoxyisoquinolin-1(2H)-one], the IC50 was 1000 to 50000 nM at ROCK1 and 101 to 1000 nM against ROCK2.

`CC1(C)CN(C(=O)Cc2ccc(-c3n[nH]c(=O)c4ccccc34)cc2)c2ccccc21` [Example 39, 4-{4-[2-(3,3-dimethyl-2,3-dihydro-1H-indol-1-yl)-2-oxoethyl]phenyl}-1,2-dihydrophthalazin-1-one]: the figures for the IC50 at ROCK1 and against ROCK2 were 101 to 1000 nM and 0.1 to 100 nM, respectively.

Consider `CC(=O)N1CC(Cn2nc(C(=O)Nc3ccc(-c4n[nH]c(=O)c5ccccc45)cc3)c3ccccc32)C1` [Example 339, 1-((1-Acetylazetidin-3-yl)methyl)-N-(4-(4-oxo-3,4-dihydrophthalazin-1-yl)phenyl)-1H-indazole-3-carboxamide], for which the IC50 at ROCK1 and at ROCK2 was 0.1 to 100 nM in each case.

As for `O=C(c1ccc2c(c1)CCN2C(=O)Cc1ccc(-c2n[nH]c(=O)c3ccccc23)cc1)N1CCOCC1` [Example 296, 4-(4-{2-[5-(morpholine-4-carbonyl)-2,3-dihydro-1H-indol-1-yl]-2-oxoethyl}phenyl)-1,2-dihydrophthalazin-1-one], the results for the IC50 at ROCK1 and on ROCK2 were 101 to 1000 nM and 0.1 to 100 nM, respectively.

On to `O=C(Nc1ccc(-c2n[nH]c(=O)c3ccccc23)cc1)c1cnn2cccnc12` [Example 113, N-[4-(4-oxo-3,4-dihydrophthalazin-1-yl)phenyl]pyrazolo[1,5-a]pyrimidine-3-carboxamide], for which the IC50 on ROCK1 and against ROCK2 was 101 to 1000 nM each time.

As to `O=C(Cc1ccc(-c2n[nH]c(=O)c3ccccc23)cc1)N[C@H]1CCc2ccccc21` [Example 82, (S)—N-(2,3-Dihydro-1H-inden-1-yl)-2-(4-(4-oxo-3,4-dihydrophthalazin-1-yl)phenyl)acetamide], the figures for the IC50 on ROCK1 and at ROCK2 were 1000 to 50000 nM and 101 to 1000 nM, respectively.

As for `O=C(Nc1ccc(-c2n[nH]c(=O)c3ccccc23)cc1)c1nn(CC2COC2)c2cc(F)ccc12` [Example 159, 6-fluoro-1-(oxetan-3-ylmethyl)-N-[4-(4-oxo-3,4-dihydrophthalazin-1-yl)phenyl]-1H-indazole-3-carboxamide], the IC50 at ROCK1 and on ROCK2 was 0.1 to 100 nM each time.

Regarding `COc1ccc2c(=O)[nH]cc(-c3ccc(NC(=O)N4CCc5ccccc54)cc3)c2c1` [Example 266, N-(4-(6-Methoxy-1-oxo-1,2-dihydroisoquinolin-4-yl)phenyl)indoline-1-carboxamide], the IC50 on ROCK1 and against ROCK2 was 0.1 to 100 nM each time.

As to `Cn1nc(C(=O)Nc2ccc(-c3n[nH]c(=O)c4ccccc34)cc2)cc1-c1ccccc1` [Example 207, 1-methyl-N-[4-(4-oxo-3,4-dihydrophthalazin-1-yl)phenyl]-5-phenyl-1H-pyrazole-3-carboxamide], the IC50 at ROCK1 and at ROCK2 was 0.1 to 100 nM throughout.

For `CC(C)(C)c1cc(NC(=O)Cc2ccc(-c3n[nH]c(=O)c4ccccc34)cc2)no1` [Example 278, N-(5-tert-butyl-1,2-oxazol-3-yl)-2-[4-(4-oxo-3,4-dihydrophthalazin-1-yl)phenyl]acetamide], the figures for the IC50 at ROCK1 and at ROCK2 were 101 to 1000 nM and 0.1 to 100 nM, respectively.

Consider `O=C(Nc1ccc(-c2c[nH]c(=O)c3ccccc23)cc1)N1CCc2ccccc21` [Example 77, N-(4-(1-Oxo-1,2-dihydroisoquinolin-4-yl)phenyl)indoline-1-carboxamide], for which the IC50 at ROCK1 and against ROCK2 was 0.1 to 100 nM each time.

For the compound `COc1cc(NC(=O)c2nn(CC(C)(C)O)c3ccccc23)ccc1-c1n[nH]c(=O)c2ccccc12` [Example 345, 1-(2-Hydroxy-2-methylpropyl)-N-(3-methoxy-4-(4-oxo-3,4-dihydrophthalazin-1-yl)phenyl)-1H-indazole-3-carboxamide], the IC50 at ROCK1 lay in the range of 101 to 1000 nM; on ROCK2, 0.1 to 100 nM.

Consider `O=C(Nc1ccc(-c2n[nH]c(=O)c3ccccc23)cc1)c1ccccc1` [Example 67, N-[4-(4-oxo-3,4-dihydrophthalazin-1-yl)phenyl]benzamide], for which the IC50 at ROCK1 is 101 to 1000 nM; on ROCK2, 0.1 to 100 nM.

Turning to `O=C(Nc1ccc(-c2n[nH]c(=O)c3ccccc23)cc1)c1cnn(C2CCOCC2)c1` [Example 384, N-(4-(4-Oxo-3,4-dihydrophthalazin-1-yl)phenyl)-1-(tetrahydro-2H-pyran-4-yl)-1H-pyrazole-4-carboxamide], the IC50 at ROCK1 is 101 to 1000 nM; against ROCK2 it was 0.1 to 100 nM.

For the compound `O=C(Cc1ccc(-c2n[nH]c(=O)c3ccccc23)cc1)Nc1nccs1` [Example 28, 2-[4-(4-oxo-3,4-dihydrophthalazin-1-yl)phenyl]-N-(1,3-thiazol-2-yl)acetamide], the IC50 was 1000 to 50000 nM on ROCK1 and 101 to 1000 nM against ROCK2.

With `O=C(Nc1ccc(-c2n[nH]c(=O)c3ccccc23)c(CO)c1)c1nn(CC2CCCO2)c2ccccc12` (stereo not drawn) [Example 367, N-(3-(Hydroxymethyl)-4-(4-oxo-3,4-dihydrophthalazin-1-yl)phenyl)-1-((tetrahydrofuran-2-yl)methyl)-1H-indazole-3-carboxamide], the IC50 is 1000 to 50000 nM at ROCK1 and 0.1 to 100 nM on ROCK2.

`CN1CC[C@@H](Oc2ccc3c(c2)N(C(=O)Cc2ccc(-c4n[nH]c(=O)c5ccccc45)cc2)CC3)C1` [Example 277, 4-{4-[2-(6-{[(3R)-1-methylpyrrolidin-3-yl]oxy}-2,3-dihydro-1H-indol-1-yl)-2-oxoethyl]phenyl}-1,2-dihydrophthalazin-1-one]: the figures for the IC50 at ROCK1 and against ROCK2 were 101 to 1000 nM and 0.1 to 100 nM, respectively.

Take `CCOc1cc(NC(=O)c2nn(CC3CCOC3)c3ccccc23)ccc1-c1n[nH]c(=O)c2ccccc12` (stereo not drawn) [Example 347, N-(3-Ethoxy-4-(4-oxo-3,4-dihydrophthalazin-1-yl)phenyl)-1-((tetrahydrofuran-3-yl)methyl)-1H-indazole-3-carboxamide]: the values for the 50% inhibitory concentration (IC50) at ROCK1 and on ROCK2 were 1000 to 50000 nM and 101 to 1000 nM, respectively.

In the case of `O=C(Nc1ccc(-c2n[nH]c(=O)c3ccccc23)cc1)c1cnn2cc(OCCN3CCOCC3)ccc12` [Example 188, 6-[2-(morpholin-4-yl)ethoxy]-N-[4-(4-oxo-3,4-dihydrophthalazin-1-yl)phenyl]pyrazolo[1,5-a]pyridine-3-carboxamide], the IC50 at ROCK1 and at ROCK2 was 0.1 to 100 nM throughout.

On to `O=C(Nc1ccc(-c2n[nH]c(=O)c3ccccc23)cc1)c1ccc(N2CCOCC2)cc1` [Example 63, 4-(morpholin-4-yl)-N-[4-(4-oxo-3,4-dihydrophthalazin-1-yl)phenyl]benzamide], for which the IC50 at ROCK1 is 101 to 1000 nM; against ROCK2 it was 0.1 to 100 nM.

As to `O=C(O)CCn1nc(C(=O)Nc2ccc(-c3n[nH]c(=O)c4ccccc34)cc2)c2ccccc21` [Example 331, 3-(3-((4-(4-Pxo-3,4-dihydrophthalazin-1-yl)phenyl)carbamoyl)-1H-indazol-1-yl)propanoic acid], the IC50 lay in the range of 101 to 1000 nM at ROCK1 and 0.1 to 100 nM at ROCK2.

On to `COC[C@@H]1CCCN1C(=O)Cc1ccc(-c2n[nH]c(=O)c3ccccc23)cc1` [Example 13, 4-(4-{2-[(2S)-2-(methoxymethyl)pyrrolidin-1-yl]-2-oxoethyl}phenyl)-1,2-dihydrophthalazin-1-one], for which the IC50 at ROCK1 and against ROCK2 was 1000 to 50000 nM throughout.

As to `O=C(Nc1ccc(-c2n[nH]c(=O)c3ccccc23)cc1)c1nn(Cc2ccccc2)c2ccccc12` [Example 99, 1-benzyl-N-[4-(4-oxo-3,4-dihydrophthalazin-1-yl)phenyl]-1H-indazole-3-carboxamide], the IC50 at ROCK1 and against ROCK2 was 0.1 to 100 nM each time.

`O=C(Cc1ccc(-c2n[nH]c(=O)c3ccccc23)cc1)Nc1nc2ccccc2[nH]1` [Example 9, N-(1H-1,3-benzodiazol-2-yl)-2-[4-(4-oxo-3,4-dihydrophthalazin-1-yl)phenyl]acetamide]: the IC50 on ROCK1 fell in the range of 1000 to 50000 nM; against ROCK2, 0.1 to 100 nM.

For orientation: IC50 means the midpoint of a concentration-inhibition curve.

For the origin of these results see US9926282B2, “Phthalazinones and isoquinolinones as rock inhibitors” (BRISTOL-MYERS SQUIBB COMPANY, priority 2013, dated 2018).
